# Assay results from ChEMBL document CHEMBL1201862, “PubChem BioAssay data set” (2004).
# Active and inactive are the calls of the source.
# Columns and labels:
# [1] = target: T1, DNA repair protein RAD52 homolog (Homo sapiens, UniProt P43351); format: functional, biochemical
# T1 sequence (P43351 whole entry): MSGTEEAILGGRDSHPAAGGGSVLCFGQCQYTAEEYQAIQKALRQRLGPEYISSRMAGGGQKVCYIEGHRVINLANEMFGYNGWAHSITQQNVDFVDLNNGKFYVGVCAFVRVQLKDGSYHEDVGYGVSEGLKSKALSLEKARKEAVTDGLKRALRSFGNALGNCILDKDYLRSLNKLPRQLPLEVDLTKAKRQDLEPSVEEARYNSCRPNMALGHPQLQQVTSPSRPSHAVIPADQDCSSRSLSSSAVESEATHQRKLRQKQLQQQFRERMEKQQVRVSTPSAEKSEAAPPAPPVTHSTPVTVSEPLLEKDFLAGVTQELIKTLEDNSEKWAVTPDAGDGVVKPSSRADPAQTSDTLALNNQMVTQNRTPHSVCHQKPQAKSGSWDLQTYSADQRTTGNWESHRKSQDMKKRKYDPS
# [2] = inhibitors of SNCA 5'UTR-driven reporter translation, confirmation, H4 neuroglioma cells, luminescence (AID 1988); format: functional, cell-based
# [3] = Luminescence Cell-Based Dose Response HTS to Identify Inhibitors of 5'UTR Stem-Loop Driven Prion Protein mRNA Translation in H4 Neuroglioblastoma Cells. [Related pubchem assays: 1827 (Project Summary), 1813 (Primary HTS)]; format: functional
# [4] = target: DNA (cytosine-5)-methyltransferase 1 (Homo sapiens, UniProt P26358); test: DNMT1 methyltransferase inhibitors, confirmation, biochemical, fluorescent molecular beacon (AID 602386); format: functional
# DNA (cytosine-5)-methyltransferase 1, sequence (P26358 whole entry): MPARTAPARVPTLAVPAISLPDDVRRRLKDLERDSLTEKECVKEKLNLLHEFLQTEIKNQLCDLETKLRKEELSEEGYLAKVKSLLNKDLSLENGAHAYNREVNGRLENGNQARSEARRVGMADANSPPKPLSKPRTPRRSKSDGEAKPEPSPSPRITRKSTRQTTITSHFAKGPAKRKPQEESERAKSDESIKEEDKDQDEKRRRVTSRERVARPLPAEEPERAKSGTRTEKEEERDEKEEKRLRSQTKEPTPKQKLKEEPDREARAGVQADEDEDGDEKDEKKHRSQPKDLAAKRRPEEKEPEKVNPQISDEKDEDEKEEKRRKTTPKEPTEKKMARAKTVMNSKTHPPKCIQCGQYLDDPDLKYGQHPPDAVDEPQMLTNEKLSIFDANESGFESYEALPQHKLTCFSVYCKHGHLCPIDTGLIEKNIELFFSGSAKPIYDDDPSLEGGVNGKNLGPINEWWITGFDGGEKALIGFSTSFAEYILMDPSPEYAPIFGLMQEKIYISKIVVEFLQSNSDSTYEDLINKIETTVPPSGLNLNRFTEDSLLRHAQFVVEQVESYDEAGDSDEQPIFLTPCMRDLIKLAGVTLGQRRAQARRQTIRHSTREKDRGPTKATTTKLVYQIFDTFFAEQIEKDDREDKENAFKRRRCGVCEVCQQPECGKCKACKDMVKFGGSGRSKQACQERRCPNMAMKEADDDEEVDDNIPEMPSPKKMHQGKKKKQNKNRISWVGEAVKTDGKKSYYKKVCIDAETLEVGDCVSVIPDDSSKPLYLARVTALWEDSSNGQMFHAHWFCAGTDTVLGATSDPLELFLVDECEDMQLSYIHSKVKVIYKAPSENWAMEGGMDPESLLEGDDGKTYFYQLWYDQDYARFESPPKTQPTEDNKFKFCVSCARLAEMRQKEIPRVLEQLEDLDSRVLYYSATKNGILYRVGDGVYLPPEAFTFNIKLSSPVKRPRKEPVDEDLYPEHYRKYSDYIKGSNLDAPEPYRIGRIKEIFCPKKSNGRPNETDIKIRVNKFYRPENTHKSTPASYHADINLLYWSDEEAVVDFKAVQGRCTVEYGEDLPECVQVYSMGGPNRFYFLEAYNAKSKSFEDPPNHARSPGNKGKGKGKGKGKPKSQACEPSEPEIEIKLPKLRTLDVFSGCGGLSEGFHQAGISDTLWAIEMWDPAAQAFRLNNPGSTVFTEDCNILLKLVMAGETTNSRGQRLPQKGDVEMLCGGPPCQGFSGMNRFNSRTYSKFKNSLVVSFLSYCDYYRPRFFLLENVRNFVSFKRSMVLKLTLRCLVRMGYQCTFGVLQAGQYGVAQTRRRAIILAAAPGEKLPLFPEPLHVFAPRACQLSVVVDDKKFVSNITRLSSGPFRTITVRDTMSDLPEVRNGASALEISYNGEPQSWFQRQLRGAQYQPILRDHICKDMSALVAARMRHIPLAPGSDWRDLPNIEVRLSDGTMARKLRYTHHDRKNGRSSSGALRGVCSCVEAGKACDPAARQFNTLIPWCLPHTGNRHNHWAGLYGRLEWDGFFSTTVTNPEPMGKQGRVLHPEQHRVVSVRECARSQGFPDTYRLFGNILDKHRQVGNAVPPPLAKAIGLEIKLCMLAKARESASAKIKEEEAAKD
# [5] = system: H4; test: inhibitors of control reporter signal in H4 cells – cell-based, plate reader, dry powder samples, counter-screen for prion reporter project, dose response (AID 540255); format: functional; conditions: Homo sapiens
# [6] = system: H4; test: Amyloid Precursor 5' UTR neuroblastoma cell reporter line Measured in Cell-Based System Using Plate Reader - 2078-04_Inhibitor_Dose_DryPowder_Activity. [Related pubchem assays (depositor defined):AID488894]; format: functional; conditions: Homo sapiens
# [7] = system: H4; test: Inhibitors of Prion Protein 5' UTR mRNA Measured in Cell-Based System Using Plate Reader - 2078-01_Inhibitor_Dose_DryPowder_Activity. [Related pubchem assays (depositor defined):AID488894]; format: functional; conditions: Homo sapiens
# [8] = cytotoxicity in HEK-293T cells, dose response, cytotoxicity control for BCR NF-kB inhibitor project, luminescence, B-cell screen hits (AID 489021); format: functional, cell-based;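 note: HEK-293T cells carrying an NF-kB luciferase reporter; cells exposed to compound for about 14 hours before viability readout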
# [9] = target: Luciferin 4-monooxygenase (Photinus pyralis, UniProt P08659); test: firefly luciferase enzyme inhibitors, dose response, biochemical, dry powder samples, plate reader (AID 588451)
# Luciferin 4-monooxygenase, sequence (P08659 whole entry): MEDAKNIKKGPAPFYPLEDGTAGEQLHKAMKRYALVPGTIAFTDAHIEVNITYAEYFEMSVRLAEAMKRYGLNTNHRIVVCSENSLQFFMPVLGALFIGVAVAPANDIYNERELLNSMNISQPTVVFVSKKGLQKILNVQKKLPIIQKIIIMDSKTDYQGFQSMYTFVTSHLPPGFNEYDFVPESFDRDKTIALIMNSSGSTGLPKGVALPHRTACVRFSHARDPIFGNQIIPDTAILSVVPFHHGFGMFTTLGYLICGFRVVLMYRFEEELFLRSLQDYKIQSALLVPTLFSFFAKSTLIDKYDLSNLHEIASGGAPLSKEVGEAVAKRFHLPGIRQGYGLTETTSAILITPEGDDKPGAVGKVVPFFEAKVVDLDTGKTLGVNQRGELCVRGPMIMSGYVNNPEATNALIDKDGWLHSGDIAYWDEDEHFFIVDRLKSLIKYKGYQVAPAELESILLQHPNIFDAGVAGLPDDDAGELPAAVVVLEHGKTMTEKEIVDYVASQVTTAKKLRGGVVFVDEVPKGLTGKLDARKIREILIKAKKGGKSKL
# [10] = system: Vero; test: Vero cell cytotoxicity, cytotoxicity control for flavivirus capping enzyme inhibitors (AID 588742); format: functional; conditions: Chlorocebus sabaeus
# [11] = target: T2, Long-chain-fatty-acid--AMP ligase FadD28 (Mycobacterium tuberculosis, UniProt P9WQ59); test: Fluorescence polarization aasay to screen for inhibitors that compete for the binding of FadD28 to a bisubstrate Measured in Biochemical System Using Plate Reader - 2147-01_Inhibitor_Dose_CherryPick_Activity.; format: functional, Mycobacterium tuberculosis H37Rv
# T2 sequence (P9WQ59 whole entry): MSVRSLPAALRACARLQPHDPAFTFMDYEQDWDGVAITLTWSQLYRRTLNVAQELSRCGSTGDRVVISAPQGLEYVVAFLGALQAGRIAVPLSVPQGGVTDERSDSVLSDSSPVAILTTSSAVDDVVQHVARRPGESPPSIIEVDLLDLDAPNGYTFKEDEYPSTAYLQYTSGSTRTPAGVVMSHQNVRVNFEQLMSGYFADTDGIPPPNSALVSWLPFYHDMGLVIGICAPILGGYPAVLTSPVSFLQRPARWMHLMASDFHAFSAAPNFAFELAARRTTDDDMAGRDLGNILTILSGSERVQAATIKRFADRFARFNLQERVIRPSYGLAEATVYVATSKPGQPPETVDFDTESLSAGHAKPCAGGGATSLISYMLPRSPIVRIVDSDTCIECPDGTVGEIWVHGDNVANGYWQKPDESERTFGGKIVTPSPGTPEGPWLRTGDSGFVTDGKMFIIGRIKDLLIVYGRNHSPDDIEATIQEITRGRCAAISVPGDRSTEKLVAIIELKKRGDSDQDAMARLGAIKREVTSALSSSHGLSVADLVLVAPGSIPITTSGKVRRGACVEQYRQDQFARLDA
# [12] = target: Genome polyprotein (dengue virus type 2, UniProt P29990); test: Dengue-2 NS5 methyltransferase inhibitors, primary screen, biochemical, confirmation dose response (AID 588689); format: functional
# Genome polyprotein, sequence (P29990 2492-3391 limits assumed): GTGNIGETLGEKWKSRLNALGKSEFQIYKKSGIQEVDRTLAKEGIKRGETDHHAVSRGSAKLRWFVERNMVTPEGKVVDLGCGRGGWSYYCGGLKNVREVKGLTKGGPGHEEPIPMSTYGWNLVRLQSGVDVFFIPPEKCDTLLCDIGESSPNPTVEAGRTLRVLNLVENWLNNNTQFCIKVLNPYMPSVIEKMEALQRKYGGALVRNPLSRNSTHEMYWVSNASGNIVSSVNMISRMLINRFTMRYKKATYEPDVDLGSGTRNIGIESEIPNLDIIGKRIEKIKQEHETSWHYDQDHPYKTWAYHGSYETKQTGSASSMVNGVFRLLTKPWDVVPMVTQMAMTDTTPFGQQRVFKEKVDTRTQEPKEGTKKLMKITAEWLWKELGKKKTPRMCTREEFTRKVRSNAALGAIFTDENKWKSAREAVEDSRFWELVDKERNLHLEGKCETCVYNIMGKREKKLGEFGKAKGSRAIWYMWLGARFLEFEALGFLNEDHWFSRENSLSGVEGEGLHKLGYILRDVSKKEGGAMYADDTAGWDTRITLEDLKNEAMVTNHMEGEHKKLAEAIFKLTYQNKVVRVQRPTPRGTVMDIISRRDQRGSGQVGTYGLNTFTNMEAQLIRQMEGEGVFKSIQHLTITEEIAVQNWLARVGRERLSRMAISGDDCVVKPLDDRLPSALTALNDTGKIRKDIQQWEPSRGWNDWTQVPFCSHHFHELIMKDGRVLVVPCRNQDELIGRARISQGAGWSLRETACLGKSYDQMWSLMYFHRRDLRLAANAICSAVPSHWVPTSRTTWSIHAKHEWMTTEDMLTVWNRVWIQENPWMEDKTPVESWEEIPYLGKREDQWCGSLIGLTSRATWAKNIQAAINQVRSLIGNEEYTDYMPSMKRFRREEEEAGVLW
# [13] = target: ATP-binding cassette sub-family B member 6 (Homo sapiens, UniProt Q9NP58); test: ABCB6 transporter inhibitors, dose response, K562-ABCB6 cells, flow cytometry, cherry pick 1 (AID 623955); format: functional; conditions: read-out: EC50_MICROM
# ATP-binding cassette sub-family B member 6, sequence (Q9NP58 whole entry): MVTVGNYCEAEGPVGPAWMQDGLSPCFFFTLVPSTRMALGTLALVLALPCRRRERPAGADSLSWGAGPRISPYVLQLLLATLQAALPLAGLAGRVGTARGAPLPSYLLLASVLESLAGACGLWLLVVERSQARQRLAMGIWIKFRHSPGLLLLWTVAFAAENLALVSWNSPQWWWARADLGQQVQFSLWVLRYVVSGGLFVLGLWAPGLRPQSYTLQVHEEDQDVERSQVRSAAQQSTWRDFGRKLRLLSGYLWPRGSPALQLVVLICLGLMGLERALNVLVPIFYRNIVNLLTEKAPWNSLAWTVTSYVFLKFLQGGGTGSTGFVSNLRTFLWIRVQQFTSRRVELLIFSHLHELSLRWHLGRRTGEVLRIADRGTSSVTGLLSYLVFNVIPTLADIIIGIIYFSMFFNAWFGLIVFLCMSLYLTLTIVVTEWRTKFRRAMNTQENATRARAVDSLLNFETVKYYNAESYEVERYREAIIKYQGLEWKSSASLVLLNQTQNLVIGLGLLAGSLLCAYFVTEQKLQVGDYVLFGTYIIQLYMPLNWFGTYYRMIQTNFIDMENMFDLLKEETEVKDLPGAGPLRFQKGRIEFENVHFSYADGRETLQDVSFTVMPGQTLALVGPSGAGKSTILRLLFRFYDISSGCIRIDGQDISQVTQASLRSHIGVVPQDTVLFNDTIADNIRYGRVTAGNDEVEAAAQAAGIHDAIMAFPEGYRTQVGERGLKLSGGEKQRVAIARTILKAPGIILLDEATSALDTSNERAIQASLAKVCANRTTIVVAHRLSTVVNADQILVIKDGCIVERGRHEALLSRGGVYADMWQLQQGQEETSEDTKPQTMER
structure (smiles),measurement,setting,value
CC1(C)CC(N=c2cc(-c3ccccc3)oc3ccc(Cl)cc23)CC(C)(C)N1,AC50,[1],0.689 µM (active)
same,EC50,[2],> 60 µM (not active)
same,EC50,[3],> 120 µM (not active)
same,IC50,[4],> 99 µM (inactive)
Cc1ccc(NC(=O)O/N=C/c2c(C)nn(C(C)(C)C)c2C)cc1Cl,AC50,[5],0.237 µM (active)
same,AC50,[6],0.125 µM (active)
same,AC50,[7],0.099 µM (active)
same,IC50,[8],> 80 µM (inactive)
same,AC50,[9],14.8 µM (active)
O=C(Nc1sc2c(c1C(=O)O)CCCC2)c1cccc(Cl)c1,CC50,[10],> 40 µM (active)
same,AC50,[11],> 100 µM (inactive)
same,IC50,[12],71.8 µM (active)
C[N+](C)(C)CC1CCCC(C[N+](C)(C)C)C1=O (stereo not drawn),EC50,[13],4.14 µM (active)
